Laboratory results reported in patent US3991199A, “Pyridoindoles” (Endo Laboratories, Inc., priority 1974, dated 1976).
Counter-ions that a name gives are not always drawn. Like-named read-outs stand apart in the source and are kept apart here.

Tests used:
[1] = tested on: phenyl-p-benzoquinone writhing; assay: Phenylquinone Writhing (PQW), analgesic; assay type: in vivo; details: po, read-out: PQW mouse ED50
locomotor activity = assay: Decreased Locomotor Activity (LMA), sedative; assay type: in vivo, mouse; details: for minimal effective dose: po, read-out: LMA mouse MED
[2] = tested on: conflict (approach-avoidance); details: in words, background statement; cited from earlier work
[3] = tested on: conflict (approach-avoidance); assay: Rat Conflict (Approach-Avoidance) Test (Conf), minor tranquilizer; assay type: in vivo; details: for minor tranquilizing (anxiolytic) activity: in words
[4] = tested on: pressor response to epinephrine and/or nor-epinephrine; assay: Adrenergic Blockage (AB); assay type: in vivo; details: Canis lupus familiaris; intravenous, dog; read-out: AB dog MED
[5] = tested on: conditioned avoidance response; assay: Rat Conditioned Avoidance Response (CAR), major tranquilizer; assay type: in vivo; details: for ED50: po, read-out: CAR rat ED50
blood pressure = assay: Hypotensive (Hypo): blood pressure in conscious rats; assay type: in vivo; details: Rattus norvegicus, oral dose, read-out: Hypo rat MED
[6] = U.S. Pat. No. 3,657,254; cited from earlier work

For CC12C=CC(CN3CC[C@@H]4[C@@H](C3)c3ccccc3N4c3ccccc3)(CC1)CC2 (relative stereo), the ED50 ([1]; mouse) was 14 mg/kg and the minimal effective dose (locomotor activity; mouse) was 30 mg/kg.
Compound COc1ccc2c3c1O[C@H]1[C@@H](O)C=C[C@H]4[C@@H](C2)N(C)CC[C@@]341 [codeine phosphate, reference compound] has an ED50 ([1]; Mus musculus) of 19 mg/kg.
In the case of CN1C(=O)CN=C(c2ccccc2)c2cc(Cl)ccc21 [diazepam, reference compound], the minimal effective dose (locomotor activity; Mus musculus) is given as 3 to 10 mg/kg, the “effect in conflict test” value [2] is given as “apparent decreased fear in the test animals” and the minimal effective dose ([3]; Rattus norvegicus, po, read-out: Conf rat MED, with ataxia) is given as 3 to 10 mg/kg. The minimal effective dose ([3]; Rattus norvegicus, po, read-out: Rat Conf.) was 3 to 10 mg/kg.
For CCCC(C)(COC(N)=O)COC(N)=O [meprobamate], the “effect in conflict test” value [2] is listed as “apparent decreased fear in the test animals”.
In the case of c1ccc(N2c3ccccc3[C@@H]3CN(C[C@H]4[C@@H]5CCCC[C@@H]54)CC[C@H]32)cc1 (relative stereo) [compound 9 of Table II, (±)-trans-2,3,4,4a,5,9b-hexahydro-2-(exo-7-norcarylmethyl)-5-phenyl-1H-pyrido[4,3-b]indole, hydrochloride], the ED50 ([1]; mouse) is reported as 1 mg/kg, the reducing locomotor activity (locomotor activity; in words) is reported as “potency in reducing locomotor activity” and the minimal effective dose (locomotor activity; mouse) is reported as 0.1 mg/kg.
CC(=O)Oc1ccccc1C(=O)O [aspirin, reference compound] showed an ED50 ([1]; Mus musculus) of 94 mg/kg.
Compound c1ccc(N2c3ccccc3[C@@H]3CN(CC4CCCC4)CC[C@H]32)cc1 (racemic) [compound 2 of Table II, (±)-trans-2-(cyclopentylmethyl)-2,3,4,4a,5,9b-hexahydro-5-phenyl-1H-pyrido[4,3-b]indole] has an ED50 ([1]; mouse) of 1 mg/kg, a minimal effective dose (locomotor activity; mouse) of 10 mg/kg and a minimal effective dose [4] of 0.03 mg/kg. For the same compound, the “major tranquilizing (antipsychotic) activity” value (from here on “major tranquilizing”) ([5]; in words) was “major tranquilizer (antipsychotic) activity”, the ED50 ([5]; rat) was 5 mg/kg and the minimal effective dose (blood pressure) was 10 mg/kg. For the same compound, the “Conf rat MED” value ([3]; po, rat) was “I”.
In the case of Cl.c1ccc(N2c3ccccc3[C@@H]3CN(CC4C5CC6CC(C5)CC4C6)CC[C@H]32)cc1 (mixture of isomers) [compound 14 of Table II, (±)-trans-2-(2-adamantylmethyl)-2,3,4,4a,5,9b-hexahydro-5-phenyl-1H-pyrido[4,3-b]indole, hydrochloride], the ED50 ([1]; mouse) is reported as 27 mg/kg, the minimal effective dose (locomotor activity; mouse) is reported as 2 mg/kg and the “major tranquilizing” value ([5]; in words) is reported as “exhibit major tranquilizing (antipsychotic) activity”. For the same compound, the “minor tranquilizing (anxiolytic) activity” value [3] was “exhibit minor tranquilizing (anxiolytic) activity at doses which are not sedating” and the “Conf rat, active dose” value ([3]; po, rat, ** active at this dose, MED not yet determined) was 10 mg/kg.
For CN(C)CCCN1c2ccccc2Sc2ccc(Cl)cc21 [chlorpromazine, reference compound], the minimal effective dose (locomotor activity; Mus musculus) was 2 to 10 mg/kg, the ED50 ([5]; Rattus norvegicus) was 6 mg/kg and the “Conf rat MED” value ([3]; rat, in vivo, po) was “I”.
With Cl.c1ccc(N2c3ccccc3[C@@H]3CN(CC45CC6CC(CC(C6)C4)C5)CC[C@H]32)cc1 (racemic) [compound 4 of Table II, (±)-trans-2-(1-adamantylmethyl)-2,3,4,4a,5,9b-hexahydro-5-phenyl-1H-pyrido[4,3-b]indole, hydrochloride] the ED50 ([1]; mouse) was 19 mg/kg, the minimal effective dose (locomotor activity; mouse) was 30 mg/kg and the minimal effective dose [4] was greater than 1 mg/kg. The “major tranquilizing” value ([5]; in words) was “exhibit major tranquilizing (antipsychotic) activity”, the ED50 ([5]; rat) was 50 mg/kg and the “minor tranquilizing (anxiolytic) activity” value [3] was “exhibit minor tranquilizing (anxiolytic) activity at doses which are not sedating”. It also gave a minimal effective dose ([3]; po, rat, read-out: Conf rat MED) of 10 mg/kg and a minimal effective dose ([3]; po, rat, comparison table, read-out: Rat Conf.) of 10 mg/kg.
C1=CCC(CN2CC[C@@H]3[C@@H](C2)c2ccccc2N3c2ccccc2)CC1 (relative stereo) showed an ED50 ([1]; mouse) of 2 mg/kg and a minimal effective dose (locomotor activity; mouse) of 3 mg/kg.
In the case of CC(Cl)=CCN1CC[C@@H]2[C@@H](C1)c1ccccc1N2c1ccccc1 (relative stereo), the ED50 ([1]; mouse) is reported as 2 mg/kg and the minimal effective dose (locomotor activity; mouse) is reported as 1 mg/kg.
Compound c1ccc(N2c3ccccc3[C@@H]3CN(CC4CCCCC4)CC[C@H]32)cc1 (relative stereo) has an ED50 ([1]; mouse) of 4 mg/kg, a minimal effective dose (locomotor activity; mouse) of 3 mg/kg and a minimal effective dose [4] of 0.03 mg/kg. For the same compound, the ED50 ([5]; rat) was 20 mg/kg, the minimal effective dose (blood pressure) was 10 mg/kg and the “Conf rat MED” value ([3]; po, rat) was “I”.
For c1ccc(N2c3ccccc3[C@@H]3CN(CC4CCC4)CC[C@H]32)cc1 [compound of Example 2, (+)-trans-2-(cyclobutylmethyl)-2,3,4,4a,5,9b-hexahydro-5-phenyl-1H-pyrido[4,3-b]indole], the minimal effective dose (locomotor activity; Mus musculus) was 3 mg/kg, the ED50 ([5]; Rattus norvegicus) was 4 mg/kg and the “major tranquilizing” value ([5]; rat, in vivo) was “major tranquilizer (antipsychotic) activity”. For the same compound, the minimal effective dose (blood pressure) was 3 mg/kg and the “Conf rat MED” value ([3]; rat, in vivo, po) was “I”.
For Cc1ccc2c(c1)[C@@H]1CN(C)CC[C@@H]1N2 (relative stereo) [2,8-dimethyl-2,3,4,4a,5,9b-hexahydro-1H-pyrido[4,3-b]]indole], the mechanism of action [6] is given as “adrenergic blockade” and the psychotropic effects [6] is given as “neuroleptic, antidepressive, and energizing effects”.
c1ccc(CCN2CC[C@@H]3[C@@H](C2)c2ccccc2N3c2ccccc2)cc1 (relative stereo) gave an ED50 ([1]; mouse) of 2 mg/kg and a minimal effective dose (locomotor activity; mouse) of 10 mg/kg.
Work on CC12CCC(CN3CC[C@@H]4[C@@H](C3)c3ccccc3N4c3ccccc3)(CC1)CC2 (relative stereo) yielded an ED50 ([1]; mouse) of 80 mg/kg and a minimal effective dose (locomotor activity; mouse) of 30 mg/kg.
